Measurements taken from the NIST ThermoML archive (doi:10.1016/j.jct.2018.08.035).
± gives the expanded uncertainty stated by the source.

Experiment: xn = mol fraction of the nth substance listed
Settings: 100 kPa, Liquid, Vibrating tube method

CCC(O)CC [3-pentanol] + C[N+](=O)[O-]
Settings | mass density [kg/m3]
289.95 K, x1 = 0.3 | 1001.59 ± 2.1
289.95 K, x1 = 0.325 | 997.479 ± 2.1
289.95 K, x1 = 0.382 | 989.628 ± 2
289.95 K, x1 = 0.414 | 986.685 ± 2
289.95 K, x1 = 0.486 | 972.227 ± 2.1
289.95 K, x1 = 0.488 | 969.425 ± 2.1
289.95 K, x1 = 0.546 | 945.729 ± 2.2
289.95 K, x1 = 0.573 | 926.782 ± 2.4
289.95 K, x1 = 0.587 | 917.014 ± 2.2
289.95 K, x1 = 0.615 | 902.235 ± 2.2
289.96 K, x1 = 0.246 | 1008.64 ± 2.1
289.96 K, x1 = 0.338 | 995.659 ± 2
289.96 K, x1 = 0.363 | 992.594 ± 2
289.96 K, x1 = 0.407 | 986.452 ± 2
290.05 K, x1 = 0.266 | 1004.43 ± 2.1
290.05 K, x1 = 0.325 | 996.695 ± 2.1
290.05 K, x1 = 0.573 | 925.737 ± 2.4
290.05 K, x1 = 0.587 | 916.65 ± 2.3
290.06 K, x1 = 0.246 | 1008.03 ± 2.2
290.06 K, x1 = 0.275 | 1005.08 ± 2.1
290.06 K, x1 = 0.3 | 1000.6 ± 2.1
290.06 K, x1 = 0.338 | 994.875 ± 2
290.06 K, x1 = 0.363 | 991.838 ± 2
290.06 K, x1 = 0.382 | 988.825 ± 2
290.06 K, x1 = 0.407 | 985.25 ± 2
290.06 K, x1 = 0.414 | 985.261 ± 2
290.06 K, x1 = 0.486 | 971.285 ± 2.1
290.06 K, x1 = 0.488 | 967.998 ± 2.1
290.06 K, x1 = 0.546 | 944.207 ± 2.2
290.06 K, x1 = 0.615 | 897.967 ± 2.3
290.15 K, x1 = 0.246 | 1007.82 ± 2.2
290.15 K, x1 = 0.266 | 1003.31 ± 2
290.15 K, x1 = 0.275 | 1003.66 ± 2.1
290.15 K, x1 = 0.3 | 999.813 ± 2.1
290.15 K, x1 = 0.325 | 995.904 ± 2
290.15 K, x1 = 0.363 | 990.879 ± 2
290.15 K, x1 = 0.382 | 987.982 ± 2
290.15 K, x1 = 0.407 | 984.083 ± 2
290.15 K, x1 = 0.414 | 984.081 ± 2
290.15 K, x1 = 0.486 | 970.021 ± 2.1
290.15 K, x1 = 0.488 | 967.145 ± 2.1
290.15 K, x1 = 0.546 | 942.592 ± 2.2
290.15 K, x1 = 0.573 | 923.887 ± 2.3
290.15 K, x1 = 0.587 | 916.211 ± 2.3
290.15 K, x1 = 0.615 | 897.189 ± 2.3
290.15 K, x1 = 0.629 | 888.276 ± 1.9
290.16 K, x1 = 0.338 | 994.25 ± 2
290.25 K, x1 = 0.246 | 1007.68 ± 2.2
290.25 K, x1 = 0.266 | 1002.5 ± 2
290.25 K, x1 = 0.275 | 1002.12 ± 2.1
290.25 K, x1 = 0.3 | 999.25 ± 2
290.25 K, x1 = 0.325 | 995.232 ± 2.1
290.25 K, x1 = 0.363 | 990.096 ± 2
290.25 K, x1 = 0.382 | 987.239 ± 2
290.25 K, x1 = 0.407 | 983.056 ± 2
290.25 K, x1 = 0.414 | 982.887 ± 2
290.25 K, x1 = 0.486 | 968.242 ± 2.1
290.25 K, x1 = 0.488 | 965.719 ± 2.1
290.25 K, x1 = 0.546 | 941.205 ± 2.2
290.25 K, x1 = 0.573 | 924.811 ± 2.4
290.25 K, x1 = 0.587 | 914.293 ± 2.3
290.25 K, x1 = 0.615 | 896.918 ± 2.2
290.26 K, x1 = 0.338 | 993.457 ± 2
290.35 K, x1 = 0.246 | 1007.56 ± 2.2
290.35 K, x1 = 0.3 | 998.453 ± 2.1
290.35 K, x1 = 0.338 | 992.611 ± 2
290.35 K, x1 = 0.363 | 989.111 ± 2
290.35 K, x1 = 0.382 | 986.379 ± 2
290.35 K, x1 = 0.407 | 982.318 ± 2
290.35 K, x1 = 0.414 | 981.695 ± 2
290.35 K, x1 = 0.486 | 966.969 ± 2.1
290.35 K, x1 = 0.546 | 939.634 ± 2.2
290.35 K, x1 = 0.573 | 919.469 ± 2.4
290.35 K, x1 = 0.587 | 912.051 ± 2.2
290.35 K, x1 = 0.615 | 896.796 ± 2.1
290.36 K, x1 = 0.266 | 1001.61 ± 2.1
290.36 K, x1 = 0.275 | 1000.44 ± 2.1
290.36 K, x1 = 0.325 | 994.188 ± 2.1
290.36 K, x1 = 0.488 | 964.297 ± 2.1
290.45 K, x1 = 0.246 | 1007.43 ± 2.2
290.45 K, x1 = 0.275 | 998.669 ± 2.1
290.45 K, x1 = 0.363 | 988.212 ± 2
290.45 K, x1 = 0.382 | 985.548 ± 2
290.45 K, x1 = 0.407 | 981.549 ± 2
290.45 K, x1 = 0.414 | 980.935 ± 2
290.45 K, x1 = 0.486 | 965.653 ± 2.1
290.45 K, x1 = 0.488 | 962.338 ± 2.1
290.45 K, x1 = 0.546 | 938.388 ± 2.2
290.45 K, x1 = 0.573 | 918.938 ± 2.3
290.45 K, x1 = 0.587 | 911.848 ± 2.3
290.45 K, x1 = 0.615 | 891.445 ± 1.9
290.46 K, x1 = 0.266 | 1000.04 ± 2.1
290.46 K, x1 = 0.3 | 997.097 ± 2.1
290.46 K, x1 = 0.325 | 993.308 ± 2
290.46 K, x1 = 0.338 | 991.804 ± 2
290.55 K, x1 = 0.246 | 1007.31 ± 2.2
290.55 K, x1 = 0.363 | 987.195 ± 2
290.55 K, x1 = 0.382 | 984.63 ± 2
290.55 K, x1 = 0.407 | 980.769 ± 2
290.55 K, x1 = 0.414 | 980.125 ± 2
290.55 K, x1 = 0.486 | 963.548 ± 2.1
290.55 K, x1 = 0.546 | 936.105 ± 2.2
290.55 K, x1 = 0.573 | 918.841 ± 2.4
290.55 K, x1 = 0.587 | 907.457 ± 2.4
290.55 K, x1 = 0.615 | 891.334 ± 1.9
290.56 K, x1 = 0.266 | 999.223 ± 2.1
290.56 K, x1 = 0.275 | 997.256 ± 2
290.56 K, x1 = 0.3 | 995.648 ± 2.1
290.56 K, x1 = 0.325 | 992.372 ± 2
290.56 K, x1 = 0.338 | 990.851 ± 2
290.56 K, x1 = 0.488 | 960.605 ± 2.1
290.65 K, x1 = 0.246 | 1007.18 ± 2.2
290.65 K, x1 = 0.275 | 996.456 ± 2
290.65 K, x1 = 0.363 | 986.092 ± 2
290.65 K, x1 = 0.382 | 983.656 ± 2
290.65 K, x1 = 0.407 | 979.953 ± 2
290.65 K, x1 = 0.414 | 979.293 ± 2
290.65 K, x1 = 0.486 | 962.186 ± 2.1
290.65 K, x1 = 0.488 | 958.456 ± 2.1
290.65 K, x1 = 0.546 | 933.71 ± 2.2
290.65 K, x1 = 0.573 | 914.236 ± 2.3
290.65 K, x1 = 0.587 | 907.308 ± 2.2
290.65 K, x1 = 0.615 | 891.207 ± 1.9
290.66 K, x1 = 0.266 | 998.714 ± 2.2
290.66 K, x1 = 0.3 | 994.016 ± 2.1
290.66 K, x1 = 0.325 | 991.399 ± 2
290.66 K, x1 = 0.338 | 989.957 ± 2
290.75 K, x1 = 0.246 | 1007.05 ± 2.2
290.75 K, x1 = 0.266 | 998.54 ± 2.2
290.75 K, x1 = 0.275 | 995.309 ± 2.1
290.75 K, x1 = 0.338 | 988.906 ± 2
290.75 K, x1 = 0.363 | 984.963 ± 2
290.75 K, x1 = 0.382 | 982.614 ± 2
290.75 K, x1 = 0.407 | 979.022 ± 2
290.75 K, x1 = 0.414 | 978.364 ± 2
290.75 K, x1 = 0.486 | 960.473 ± 2.1
290.75 K, x1 = 0.488 | 956.964 ± 2.1
290.75 K, x1 = 0.546 | 931.465 ± 2.2
290.75 K, x1 = 0.573 | 914.122 ± 2.3
290.75 K, x1 = 0.587 | 904.315 ± 2.4
290.75 K, x1 = 0.615 | 891.079 ± 1.9
290.76 K, x1 = 0.3 | 992.118 ± 2.1
290.76 K, x1 = 0.325 | 990.346 ± 2
290.85 K, x1 = 0.246 | 1006.93 ± 2.2
290.85 K, x1 = 0.275 | 994.946 ± 2.2
290.85 K, x1 = 0.363 | 983.532 ± 2
290.85 K, x1 = 0.382 | 981.337 ± 2
290.85 K, x1 = 0.407 | 977.974 ± 2
290.85 K, x1 = 0.486 | 958.566 ± 2.1
290.85 K, x1 = 0.488 | 954.397 ± 2.1
290.85 K, x1 = 0.546 | 930.124 ± 2.2
290.85 K, x1 = 0.573 | 911.261 ± 2.4
290.85 K, x1 = 0.587 | 900.983 ± 2.5
290.86 K, x1 = 0.266 | 998.415 ± 2.2
290.86 K, x1 = 0.3 | 990.332 ± 2
290.86 K, x1 = 0.325 | 989.272 ± 2
290.86 K, x1 = 0.338 | 987.682 ± 2
